A short description of data set [1]: In vitro rat microsomal stability assay. Type of data set: in vitro ADME, rat (Sprague-Dawley). Conditions: Sprague-Dawley, rat, 0.5 h, 0.5 μM, pH 7.4. In short, it runs like this: (§1)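 Liver microsomes: Sprague-Dawley rat for rat assay, human for human assay; 37 °C; NADPH cofactor, also spiked into time-zero plates.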
The target of a further data set is T1, human TRPV3 (Homo sapiens, UniProt Q8NET8).
T1 construct: expressed in transfected cells
T1 sequence (Q8NET8 1-790): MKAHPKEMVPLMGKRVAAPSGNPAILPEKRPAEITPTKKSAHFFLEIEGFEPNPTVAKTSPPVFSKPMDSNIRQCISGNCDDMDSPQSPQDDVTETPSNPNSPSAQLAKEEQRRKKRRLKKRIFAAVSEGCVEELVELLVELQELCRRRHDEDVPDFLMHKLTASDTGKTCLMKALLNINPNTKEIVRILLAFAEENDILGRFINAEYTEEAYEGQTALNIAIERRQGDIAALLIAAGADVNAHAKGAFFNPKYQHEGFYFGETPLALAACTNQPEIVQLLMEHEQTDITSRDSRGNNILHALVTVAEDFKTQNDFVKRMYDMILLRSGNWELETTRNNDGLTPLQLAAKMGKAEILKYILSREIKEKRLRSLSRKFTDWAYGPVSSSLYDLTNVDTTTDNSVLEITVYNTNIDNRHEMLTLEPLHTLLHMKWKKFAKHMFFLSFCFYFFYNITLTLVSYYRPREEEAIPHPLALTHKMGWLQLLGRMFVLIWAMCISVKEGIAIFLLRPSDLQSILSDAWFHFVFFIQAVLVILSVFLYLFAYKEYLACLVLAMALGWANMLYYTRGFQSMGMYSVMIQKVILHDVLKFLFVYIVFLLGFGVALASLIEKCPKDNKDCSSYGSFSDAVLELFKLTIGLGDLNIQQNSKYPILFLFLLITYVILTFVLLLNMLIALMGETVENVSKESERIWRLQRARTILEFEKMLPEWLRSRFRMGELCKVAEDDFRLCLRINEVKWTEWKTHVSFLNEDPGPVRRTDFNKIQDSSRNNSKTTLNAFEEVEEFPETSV
Nature of the data set: In vitro antagonism of recombinant human TRPV3 activation (FLIPR Tetra calcium assay, 2-APB as agonist). The class given is cell-based. The conditions noted are these: HEK293 cells stably expressing human TRPV3; 2-APB 80 μM; range class; read-out: IC50 (reported range). The method, then: Test compounds were evaluated for ability to antagonize the activation of recombinant human TRPV3 using FLIPR® Tetra cellular screening. Specifically, on the day prior to the experiment recombinant HEK293 cells that stably express human TRPV3 were removed from tissue culture flasks and plated in growth medium at 20,000 cells/well into Poly-d-lysine coated black/clear 384-well Plate (Corning, 3845) using a Multidrop® dispenser (ThermoScientific, Waltham, Mass.). Prior to the start of the assay, the medium was removed by aspiration, and cells were loaded with 30 μL no-wash FLIPR® Calcium-4 dye (λEX=470-495 nm, λEM=515-575 nm; Molecular Devices, Sunnyvale, Calif.). The cells were then incubated for 90-120 minutes in the dark prior to addition of the test compound.
A double-addition protocol was used. The test compound (i.e., the TRPV3 antagonist) was added at the 10 second time point, followed by the addition of a TRPV3 agonist three minutes later. Each test compound evaluated was first dissolved in DMSO to prepare a 10 mM stock solution. A solution (5×) of the test compound was then prepared in DPBS (Dulbecco's Phosphate Buffered Saline) and 10 μL of that solution was added to the cells at a delivery rate of 40 μL/sec. The TRPV3 agonist used to activate human TRPV3 expressed by the […] was 2-aminoethoxy-diphenyl borate (2-APB; Tocris Cookson, Ellisville, Mo.) at 80 μM. Final assay volume was 50 μL. Total length of an experimental run was 10 minutes.
Changes in fluorescence were measured over time using the FLIPR® instrument. The intensity of the fluorescence was captured and digitally transferred to an interfaced computer. The maximum response minus minimum response was calculated and expressed as the percentage of the maximum 2-APB response in the absence of antagonist. The concentration of 2-APB corresponds to its EC80.
Table 1 reports the IC50 values measured for the test compounds as human TRPV3 antagonists. […] Actual measured values are shown parenthetically after the reported range. In most cases, the values reported are average values from at least two runs (i.e., n≧2).

Data set [2] in a line: In vitro human microsomal stability assay. The class given is in vitro ADME. Conditions: human, 0.5 h, 0.5 μM, pH 7.4. In short, it runs like this: as §1

We go through 22 compounds from patent publication US8772500B2, “TRPV3 modulators” (AbbVie Inc., priority 2011, dated 2014).

Each structure is given as a SMILES string.

A word on the IC50: it is the point on the concentration scale where inhibition reaches its midpoint.

As for `OC(c1ccccn1)C1(c2ccccc2C(F)(F)F)CCC1` (stereo not drawn) [Example 5, pyridin-2-yl{1-[2-(trifluoromethyl)phenyl]cyclobutyl}methanol], the “RAT MICROSOMAL STABILITY (% REMAINING AFTER 30 MINUTES)” value in data set [1] came out at 0.06%. In addition, the IC50 on human TRPV3 lay within 5100 to 20000 nM. In addition, the “HUMAN MICROSOMAL STABILITY (% REMAINING AFTER 30 MINUTES)” value in data set [2] is recorded as 0.27%.
For `OC(c1ccccn1)C1(c2cccc(C(F)(F)F)c2)CCC1` (stereo not drawn) [Example 6, pyridin-2-yl{1-[3-(trifluoromethyl)phenyl]cyclobutyl}methanol], the “RAT MICROSOMAL STABILITY (% REMAINING AFTER 30 MINUTES)” value in data set [1] came to 2.3%. The IC50 at human TRPV3 lay within 50 to 500 nM. The “HUMAN MICROSOMAL STABILITY (% REMAINING AFTER 30 MINUTES)” value in data set [2] came out at 1.2%.
The like results for `Cc1ccccc1C1(C(O)c2ccccn2)CCC1` (stereo not drawn) [Example 7, [1-(2-methylphenyl)cyclobutyl](pyridin-2-yl)methanol] were, in that order, 0.32%, 5100 to 20000 nM and 0.15%.
With `Cc1cccc(C2(C(O)c3ccccn3)CCC2)c1` (stereo not drawn) [Example 8, [1-(3-methylphenyl)cyclobutyl](pyridin-2-yl)methanol], the “RAT MICROSOMAL STABILITY (% REMAINING AFTER 30 MINUTES)” value in data set [1] came out at 0.73%. Besides, the IC50 at human TRPV3 is 50 to 500 nM. Moreover, the “HUMAN MICROSOMAL STABILITY (% REMAINING AFTER 30 MINUTES)” value in data set [2] is recorded as 0.13%.
With `Cc1ccc(C2(C(O)c3ccccn3)CCC2)cc1` (stereo not drawn) [Example 9, [1-(4-methylphenyl)cyclobutyl](pyridin-2-yl)methanol], the “RAT MICROSOMAL STABILITY (% REMAINING AFTER 30 MINUTES)” value in data set [1] is recorded as 0.18%. Also, on human TRPV3, the IC50 is 1100 to 5000 nM. Moreover, the “HUMAN MICROSOMAL STABILITY (% REMAINING AFTER 30 MINUTES)” value in data set [2] is reported as 0.12%.
The like results for `OC(c1ccccn1)C1(c2ccccc2OC(F)(F)F)CCC1` (stereo not drawn) [Example 10, pyridin-2-yl{1-[2-(trifluoromethoxy)phenyl]cyclobutyl}methanol] were, in that order, 0.62%, 1100 to 5000 nM and 0.42%.
With `OC(c1ccccn1)C1(c2cccc(OC(F)(F)F)c2)CCC1` (stereo not drawn) [Example 11, pyridin-2-yl{1-[3-(trifluoromethoxy)phenyl]cyclobutyl}methanol], the “RAT MICROSOMAL STABILITY (% REMAINING AFTER 30 MINUTES)” value in data set [1] came to 0.80%. In addition, at human TRPV3, the IC50 lay in the range of 50 to 500 nM. In addition, the “HUMAN MICROSOMAL STABILITY (% REMAINING AFTER 30 MINUTES)” value in data set [2] stood at 0.72%.
On the same counts, the results for `OC(c1ccccn1)C1(c2ccc(OC(F)(F)F)cc2)CCC1` (stereo not drawn) [Example 12, pyridin-2-yl{1-[4-(trifluoromethoxy)phenyl]cyclobutyl}methanol] are 11%, 50 to 500 nM and 24%.
Regarding `OC(c1ccccn1)C1(c2cc(C(F)(F)F)cc(C(F)(F)F)c2)CCC1` (stereo not drawn) [Example 13, {1-[3,5-bis(trifluoromethyl)phenyl]cyclobutyl}(pyridin-2-yl)methanol], the “RAT MICROSOMAL STABILITY (% REMAINING AFTER 30 MINUTES)” value in data set [1] is reported as 19%. In addition, the 50% inhibitory concentration (IC50) at human TRPV3 is 501 to 1000 nM. In addition, the “HUMAN MICROSOMAL STABILITY (% REMAINING AFTER 30 MINUTES)” value in data set [2] is reported as 7.4%.
Consider `OC(c1ccccn1)C1(c2ccc(F)c(C(F)(F)F)c2)CCC1` (stereo not drawn) [Example 15, {1-[4-fluoro-3-(trifluoromethyl)phenyl]cyclobutyl}(pyridin-2-yl)methanol], for which, in data set [1], the “RAT MICROSOMAL STABILITY (% REMAINING AFTER 30 MINUTES)” value is given as 1.2%. On human TRPV3, the IC50 lay in the range of 50 to 500 nM. In addition, the “HUMAN MICROSOMAL STABILITY (% REMAINING AFTER 30 MINUTES)” value in data set [2] was found to be 5.6%.
On the same counts, the results for `OC(c1ccccn1)C1(c2ccc(C(F)(F)F)c(F)c2)CCC1` (stereo not drawn) [Example 17] are 13%, 1100 to 5000 nM and 21%.
On the same counts, the results for `OC(c1ccccn1)C1(c2cccc(Oc3ccccc3)c2)CCC1` (stereo not drawn) [Example 23, [1-(3-phenoxyphenyl)cyclobutyl](pyridin-2-yl)methanol] are 0.69%, 501 to 1000 nM and 0.12%.
The like results for `OC(c1ccccn1)C1(c2ccc(Oc3ccccc3)cc2)CCC1` (stereo not drawn) [Example 24, [1-(4-phenoxyphenyl)cyclobutyl](pyridin-2-yl)methanol] were, in that order, 17%, 1100 to 5000 nM and 20%.
As to `OC(c1ccccn1)C1(c2ccc(Cc3ccccc3)cc2)CCC1` (stereo not drawn) [Example 25, [1-(4-benzylphenyl)cyclobutyl](pyridin-2-yl)methanol], the “RAT MICROSOMAL STABILITY (% REMAINING AFTER 30 MINUTES)” value in data set [1] is on record as 1.3%. The IC50 on human TRPV3 was in the range of 1100 to 5000 nM. Further, the “HUMAN MICROSOMAL STABILITY (% REMAINING AFTER 30 MINUTES)” value in data set [2] turned out to be 21%.
On the same counts, the results for `O[C@H](c1ccccn1)C1(c2ccc(Cl)c(Cl)c2)CCC1` [Example 26, (S)-[1-(3,4-dichlorophenyl)cyclobutyl](pyridin-2-yl)methanol] are 1.0%, 50 to 500 nM and 6.3%.
Consider `O[C@H](c1ccccn1)C1(c2ccc(C(F)(F)F)cc2F)CCC1` [Example 27, (S)-{1-[2-fluoro-4-(trifluoromethyl)phenyl]cyclobutyl}(pyridin-2-yl)-methanol], for which, in data set [1], the “RAT MICROSOMAL STABILITY (% REMAINING AFTER 30 MINUTES)” value is 15%. In addition, on human TRPV3, the concentration for half-maximal inhibition (IC50) fell in the range of 1100 to 5000 nM. Also, the “HUMAN MICROSOMAL STABILITY (% REMAINING AFTER 30 MINUTES)” value in data set [2] was 13%.
On to `O[C@H](c1ccccn1)C1(c2ccc(C(F)(F)F)cc2)CCC1` [Example 28, (S)-pyridin-2-yl{1-[4-(trifluoromethyl)phenyl]cyclobutyl}methanol], for which the “RAT MICROSOMAL STABILITY (% REMAINING AFTER 30 MINUTES)” value in data set [1] came to 13%. Further, the IC50 on human TRPV3 lay within 50 to 500 nM. For the same compound, the “HUMAN MICROSOMAL STABILITY (% REMAINING AFTER 30 MINUTES)” value in data set [2] is listed as 12%.
Take `O[C@H](c1ccccn1)C1(c2ccc(C(F)(F)F)c(F)c2)CCC1` [Example 29, (S)-{1-[3-fluoro-4-(trifluoromethyl)phenyl]cyclobutyl}(pyridin-2-yl)-methanol]: the “RAT MICROSOMAL STABILITY (% REMAINING AFTER 30 MINUTES)” value in data set [1] is reported as 45%. Also, the IC50 on human TRPV3 is 1100 to 5000 nM. Besides, in data set [2], the “HUMAN MICROSOMAL STABILITY (% REMAINING AFTER 30 MINUTES)” value came to 5.3%.
The like results for `Cc1cccnc1[C@@H](O)C1(c2ccc(Cl)c(Cl)c2)CCC1` [Example 30, (S)-[1-(3,4-dichlorophenyl)cyclobutyl](3-methylpyridin-2-yl)methanol] were, in that order, 0.98%, 1100 to 5000 nM and 1.5%.
Consider `O[C@H](c1ncccn1)C1(c2ccc(Cl)c(Cl)c2)CCC1` [Example 39, (S)-[1-(3,4-dichlorophenyl)cyclobutyl](pyrimidin-2-yl)methanol], for which, in data set [1], the “RAT MICROSOMAL STABILITY (% REMAINING AFTER 30 MINUTES)” value turned out to be 11%. Also, the IC50 at human TRPV3 is 501 to 1000 nM. Further, the “HUMAN MICROSOMAL STABILITY (% REMAINING AFTER 30 MINUTES)” value in data set [2] was 51%.
Consider `O[C@@H](c1ncccn1)C1(c2ccc(Cl)c(Cl)c2)CCC1` [Example 40, (R)-[1-(3,4-dichlorophenyl)cyclobutyl](pyrimidin-2-yl)methanol], for which the “RAT MICROSOMAL STABILITY (% REMAINING AFTER 30 MINUTES)” value in data set [1] was 5.6%. Besides, the IC50 on human TRPV3 lay in the range of 5100 to 20000 nM. In data set [2], the “HUMAN MICROSOMAL STABILITY (% REMAINING AFTER 30 MINUTES)” value is given as 68%.
The like results for `Cc1ccccc1C(C)C1(C(O)c2ccccn2)CCC1` (stereo not drawn) [Example 45, {1-[1-(2-methylphenyl)ethyl]cyclobutyl}(pyridin-2-yl)methanol] were, in that order, 0.02%, 1100 to 5000 nM and 0.03%.
